The text below walks through data of patent publication US20220409617A1, “Drug Formulations and Methods of Treatment for Metabolic Disorders” (The Regents of the University of California, priority 2019, published 2022).

One assay concerns AKT. Nature of the assay: Insulin-stimulated AKT activation, western blot. Type of assay: cell-based, mouse. The following applies: 3T3-L1 adipocytes; 3 h pre-treatment, C2-ceramide 50 or 100 μM, 893 5 or 10 μM; insulin 100 nM 15 min. The method, then: (§1) 3T3-L1 cells were maintained in DMEM with 10% FBS and 1% penicillin-streptomycin until induced to differentiate. 3T3-L1 pre-adipocytes were differentiated as described in (M. P. Valley, et al., Anal. Biochem. 505: 43-50, 2016, the disclosure of which is incorporated herein by reference) with slight modifications. Briefly, pre-adipocytes were grown to confluence. After 2 d, cells were induced with maintenance media containing 500 μM IBMX (15879, Sigma-Aldrich, St. Louis, Mo.), 1 μM dexamethasone (D4902, Sigma-Aldrich), 5 μg/mL bovine insulin (10516, Sigma-Aldrich), and 5 μM troglitazone (50-115-0786, ApexBio). Media was changed every 2-3 d for 7 d. On day 7 post-induction, media was changed to maintenance media+5 μg/mL bovine insulin. On day 9 post-induction, media was changed to maintenance media. Mature adipocytes were used 12-14 d post-induction for all experiments. […]
Mature adipocytes were serum starved for 16 h then treated with vehicle, ceramide (50 or 100 μM), or sphingolipid-like compound 893 (5 or 10 μM) in serum-free media supplemented with 0.2% fatty-acid free BSA for 3 h after which 100 nM insulin was added for 15 min. […] Protein content was quantified in the supernatant using the Pierce™ BCA Protein Assay Kit (Thermo-Fisher Scientific, Waltham, Mass.). […]
(In general: Immunoblotting shows a protein as a band on a membrane.)

The next assay relates to 3T3-L1 adipocytes. Nature of the assay: Insulin-stimulated 2-deoxyglucose uptake. The format is cell-based, mouse. The following applies: 3 h, 893 10 μM, MK-2206 2 μM. The method, then:
as §1, with “experiments. LSL-KrasG12D mouse embryonic fibroblasts (MEFs) with and without Cre-mediated deletion of the STOP cassette were obtained from David Tuveson (Cold Spring Harbor Laboratory, Cold Spring Harbor N.Y., USA) in 2000. p53^flox/flox MEFs were derived in house (2015) from C57BL/6 mice using standard techniques and immortalized by transient expression of Cre recombinase and deletion of p53. MEFs were cultured and maintained in DMEM with 10% FBS and 1% penicillin-streptomycin.” for “experiments.”

The subject of assay [1] is mouse embryonic fibroblasts (MEFs). Nature of the assay: Ceramide-induced (C16:0 CER, C2-ceramide) mitochondrial fragmentation. Type of assay: cell-based. The procedure:
(§2) 3T3-L1 cells were maintained in DMEM with 10% FBS and 1% penicillin-streptomycin until induced to differentiate. 3T3-L1 pre-adipocytes were differentiated as described in (M. P. Valley, et al., Anal. Biochem. 505: 43-50, 2016, the disclosure of which is incorporated herein by reference) with slight modifications. Briefly, pre-adipocytes were grown to confluence. After 2 d, cells were induced with maintenance media containing 500 μM IBMX (15879, Sigma-Aldrich, St. Louis, Mo.), 1 μM dexamethasone (D4902, Sigma-Aldrich), 5 μg/mL bovine insulin (10516, Sigma-Aldrich), and 5 μM troglitazone (50-115-0786, ApexBio). Media was changed every 2-3 d for 7 d. On day 7 post-induction, media was changed to maintenance media+5 μg/mL bovine insulin. On day 9 post-induction, media was changed to maintenance media. Mature adipocytes were used 12-14 d post-induction for all experiments. LSL-KrasG12D mouse embryonic fibroblasts (MEFs) with and without Cre-mediated deletion of the STOP cassette were obtained from David Tuveson (Cold Spring Harbor Laboratory, Cold Spring Harbor N.Y., USA) in 2000. p53^flox/flox MEFs were derived in house (2015) from C57BL/6 mice using standard techniques and immortalized by transient expression of Cre recombinase and deletion of p53. MEFs were cultured and maintained in DMEM with 10% FBS and 1% penicillin-streptomycin. A549 cells were cultured in DMEM with 10% FBS, 1% penicillin-streptomycin and 1% sodium pyruvate. Stock solution of palmitic acid (ACROS Organics, cat # AC129702500) was prepared at 100 mM in ethanol. Palmitate (250 μM) was conjugated to 1% (w/v) fatty-acid free bovine serum albumin (Sigma, A8806) in DMEM at 37° C. for 20 min. For all immunofluorescence assays, 8,000 MEFs were seeded into 8-chamber slides (Cellvis, cat # C8-1.5H-N) 12-16 h before treatment. Cells were pre-treated with sphingolipid-like compound 893 (5 μM in water), myriocin (10 μM in methanol), fumonisin-B1 (30 μM in DMSO), or celastrol (500 nM in DMSO) for 3 h followed by a 3 h treatment with BSA-conjugated palmitate mixture or BSA alone. Where cells were treated with C2-ceramide (50 μM in DMSO) or C16:0 ceramide (100 μM in ethanol) for 3 h, cells were pre-treated with sphingolipid-like compound 893 for 1-3 h as indicated, mdivi-1 (50 μM in DMSO) for 1 h or 24 h, M1 (5 μM in DMSO) for 24 h, mdivi-1 and M1 together for 24 h, leflunomide (50 μM in methanol) for 1 h or 24 h, or with P110 (1 μM in water) for 1 h or 12 h. LSL or KRAS^G12D MEFs were treated with sphingolipid-like compound 893 (5 μM) for 6 h prior to fixation.
MEFs were washed twice with PBS and fixed with 4% paraformaldehyde for 10 min at RT. Cells were permeabilized with 0.3% Triton X-100 in blocking buffer containing 10% fetal bovine serum for 20 min at 37° C. followed by overnight incubation with mouse anti-citrate synthase (sc-390693, Santa Cruz Biotechnology; dilution, 1:200) or rabbit-anti-DRP1 at 1:100 (#8570, Cell Signaling Technology) at 4° C. Cells were then washed twice with PBS and incubated with AlexaFluor 488 goat anti-mouse (A28175, Invitrogen) or AlexaFluor 594 donkey anti-rabbit (A32754, Invitrogen) secondary antibodies at RT followed by 5 min incubation with 1 μg/ml DAPI and 2 washes in PBS. For NADH autofluorescence studies, mice were gavaged with vehicle or 120 mg/kg sphingolipid-like compound 893 at ZT8.5 (4-10.5 h before sacrifice between ZT12.5 and ZT18). Post sacrifice, livers were excised, washed 3× with PBS, placed in DMEM supplemented with 10% FBS and 1% penicillin-streptomycin, and immediately imaged. NADH/NADPH autofluorescence was detected with 740 nm excitation and 450±50 nm detectors using a Mai Tai two-photon laser. Fluorescence microscopy was performed on a Zeiss LSM 780 confocal using a 63× oil objective with a […] numerical aperture (NA) or using a Nikon TE2000-S inverted epifluorescence microscope with a 100× oil objective (1.3 NA) and a Photometrics CoolSNAP ES2 monochrome CCD camera. […]

In another assay the test system is A549 lung cancer cells. As to the kind of experiment: KRAS-mediated mitochondrial fission in A549 cells. The format is cell-based, human. The following applies: A549, oncogenic KRAS; 893 5 μM 1 h, leflunomide 50 μM 24 h. The procedure:
as §2, with “Where cells were treated with C2-ceramide (50 μM in DMSO) or C16:0 ceramide (100 μM in ethanol) for 3 h, cells were pre-treated with sphingolipid-like compound 893 for 1-3 h as indicated, mdivi-1 (50 μM in DMSO) for 1 h or 24 h, M1 (5 μM in DMSO) for 24 h, mdivi-1 and M1 together for 24 h, leflunomide (50 μM in methanol) for 1 h or 24 h, or with P110 (1 μM in water) for 1 h or 12 h. LSL or KRAS^G12D MEFs were treated with sphingolipid-like compound 893 (5 μM) for 6 h prior to fixation.” left out
MEFs were washed twice with PBS and fixed with 4% paraformaldehyde for 10 min at RT. […] NADH/NADPH autofluorescence was detected with 740 nm excitation and 450±50 nm detectors using a Mai Tai two-photon laser. Fluorescence microscopy was performed on a Zeiss LSM 780 confocal using a 63× oil objective with a […] numerical aperture (NA) or using a Nikon TE2000-S inverted epifluorescence microscope with a 100× oil objective (1.3 NA) and a Photometrics CoolSNAP ES2 monochrome CCD camera. […]

The conditions of assay [2]: mouse, in vivo; cited from earlier work.
Assay [3] in a line: Home-cage feeding study with suboptimal leptin (leptin sensitization). Type of assay: in vivo, mouse. The note with it: lean chow-fed 18 week old mice; leptin 2 mg/kg i.p. or 893 120 mg/kg by gavage. The text has this:
Leptin is secreted by adipocytes in proportion to their triglyceride content, signaling to the CNS when peripheral energy stores are full and food consumption should decrease. In HFD-fed mice, chronic increases in adiposity lead to elevations in circulating leptin with no accompanying decrease in food intake, a state that has been termed leptin-resistant. Reducing leptin levels in the blood restores leptin signaling in the hypothalamus (S. Zhao, et al., 2019, cited supra). Thus, the sphingolipid-like compound 893 should function as a leptin-sensitizing agent. To test this model, 18 week old lean, male C57BL/6J mice were treated intraperitoneally with a suboptimal dose of recombinant leptin at ZT8.5 and food intake and body weight measured over the next 18 h. […] In summary, the reduction in food intake in sphingolipid-like compound 893-treated mice is consistent with the reversal of mitochondrial fragmentation in the hypothalamus and likely due in part to the re-sensitization of anorexigenic POMG neurons to leptin when plasma leptin levels are decreased.
Mice were singly housed and allowed to acclimate for 72 h before food intake was monitored. Food consumption was determined by monitoring the weight of food in the hopper. Initial food and body weight measurements were taken at ZT9 and final measurements were taken 16 h later to capture the active period where most consumption occurred. Home cage feeding studies were performed with C57BL/6J mice maintained on a HFD for 24 weeks (33 weeks of age), or ob/ob mice at 8 weeks of age. Mice received vehicle or 120 mg/kg sphingolipid-like compound 893 by gavage at ZT8.5. For experiments involving leptin, 18 week old, SD fed (16% kcal from fat, 2020×, Envigo) C57BL/6J mice received vehicle or 120 mg/kg sphingolipid-like compound 893 by gavage at ZT8.5. […] One ob/ob mouse died during Echo MRI for unknown reasons after 6 d of treatment with sphingolipid-like compound 893; data from this mouse was analyzed prior to death.

For `CCCCCCCCCCCCC/C=C/[C@@H](O)[C@H](CO)NC(C)=O` [ceramide, C2-ceramide, reference compound], the “Insulin-stimulated AKT activation” value in the assay with AKT was “interfered with insulin-stimulated AKT activation”.

Turning to `NC1(c2ccc(-c3nc4ccn5c(=O)[nH]nc5c4cc3-c3ccccc3)cc2)CCC1` [MK-2206, reference compound], the Insulin-stimulated glucose uptake result in the assay on 3T3-L1 adipocytes is listed as “impeded insulin-stimulated glucose uptake in adipocytes”.

Regarding `Cc1oncc1C(=O)Nc1ccc(C(F)(F)F)cc1` [leflunomide], in assay [1] (MEFs, C16:0 CER 100 μM or C2-ceramide 50 μM 3 h, 893 5 μM, mdivi-1 50 μM, M1 5 μM, leflunomide 50 μM, P110 1 μM), the “Protection from ceramide-induced mitochondrial fragmentation” value was “blocked C16:0 ceramide-induced mitochondrial fragmentation after a 24 h, but not a 1 h, pre-incubation”. For the same molecule, in assay [1] (blocking ceramide-induced mitochondrial fragmentation in vitro), the “Potency relative to compound 893 (less potent)” value is on record as 10 fold. Also, the “Reversal of mitochondrial fragmentation / tubularity in A549 cells” value in the assay with A549 lung cancer cells is listed as “did not reverse mitochondrial fragmentation in A549 lung cancer cells”. Besides, the “Food intake and body weight in obese mice” value in assay [2] was “failed to reduce food intake or body weight in obese mice”.

B1: leptin: recombinant mouse leptin (498-OB, R&D Systems) (protein, UniProt P41160 22-167, looked up)
Leptin: VPIQKVQDDTKTLIKTIVTRINDISHTQSVSAKQRVTGLDFIPGLHPILSLSKMDQTLAVYQQVLTSLPSQNVLQIANDLENLRDLLHLLAFSKSCSLPQTSGLQKPESLDGVLEASLYSTEVVALSRLQGSLQDILQQLDVSPEC
B1: in assay [3], the “Food intake and body weight over 18 h, single agent” value is listed as “not sufficient to decrease food intake or body weight”.
